Results taken from PubChem BioAssay (NCI).
“And” between values parts separate entries of the source, which are not always exact repeats. Equal entries are not always repeated.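 Method: 48-hour compound exposure of cells in 96-well plates, five concentrations, linear interpolation of endpoints. Here, GI50 denotes the concentration required for 50% inhibition of growth. TGI is the concentration that stops growth completely.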 Where a SMILES comes first, the peptide text is derived from it. The star is where a group is joined. Cbz = O=C(OCc1ccccc1)*; Boc = CC(C)(C)OC(=O)*; OBn = c1ccc(CO*)cc1

Key:
Assay in all cases: NCI-60 cell line screen, 48 h
786-0 renal = tested on: 786-0 renal
HT29 colon = tested on: HT29 colon
ACHN renal = tested on: ACHN renal
M14 melanoma = tested on: M14 melanoma
BT-549 breast = tested on: BT-549 breast
U251 CNS = tested on: U251 CNS
MALME-3M melanoma = tested on: MALME-3M melanoma
SN12C renal = tested on: SN12C renal
A549 NSCLC = tested on: A549 NSCLC
HCT-15 colon = tested on: HCT-15 colon

SMILES	TGI (786-0 renal) [µM]	TGI (HT29 colon) [µM]	TGI (ACHN renal) [µM]	TGI (M14 melanoma) [µM]	TGI (BT-549 breast) [µM]	TGI (U251 CNS) [µM]	TGI (MALME-3M melanoma) [µM]	TGI (SN12C renal) [µM]	TGI (A549 NSCLC) [µM]	TGI (HCT-15 colon) [µM]	GI50 (ACHN renal) [nM]	GI50 (M14 melanoma) [nM]	GI50 (U251 CNS) [nM]	GI50 (MALME-3M melanoma)	GI50 (SN12C renal) [nM]	GI50 (A549 NSCLC) [nM]	GI50 (HCT-15 colon) [nM]	GI50 (HT29 colon) [nM]	GI50 (BT-549 breast) [µM]
Cc1cc2c(cc1-c1cc3c(cc1C)C(C(C)C)=C(O)C(=O)/C3=C\Nc1cccc3c(N)cccc13)/C(=C/Nc1cccc3c(N)cccc13)C(=O)C(O)=C2C(C)C	> 100	> 100	> 100	> 100	> 100	> 100	> 100	> 100	> 100	> 100									
C/C(O)=C/c1nc2sc(C)c(C)c2c(=O)s1	> 100	> 100	> 100	> 100	> 100	> 100	> 100	> 100	> 100	> 100									
CN(Cc1cnc2nc(N)nc(N)c2n1)c1ccc(C(=O)NC2CCCCC2)cc1	> 100	31	47.8	29	> 100	32.5	> 100	> 100		> 100									
CC(C)c1cccc(C(C)C)c1NC(=S)Nc1ccccc1		> 100	> 100	> 100		> 100	> 100	> 100	> 100	> 100									
CSc1ccc(C=C2N=C(c3ccccc3)N(c3cc(C(=O)c4ccccc4)ccc3N3C(=O)/C(=C/c4ccc(SC)cc4)N=C3c3ccccc3)C2=O)cc1	> 100	> 100	> 100	> 100	> 100	> 100		> 100	> 100	> 100									
COC(=O)C(CCCCNC(=O)OCc1ccccc1)NC(=O)C(CCC(=O)OCc1ccccc1)NC(=O)OC(C)(C)C (stereo not drawn) (Boc-Glu(OBn)-Lys(Cbz)-OMe; configuration not given here)	> 100	> 100	> 100	> 100	> 100	> 100	> 100	> 100	> 100	> 100									
Cc1ccc(NC(=O)c2cc(S(=O)(=O)N3CCNNC3=O)c(S)cc2Cl)cc1	> 100		> 100	> 100	87.6	> 100	> 100	> 100	> 100	> 100									
COC(=O)[C@@H](COC(=O)/C=C/c1ccc(OC(C)=O)c(OC(C)=O)c1)NC(=O)/C=C/c1ccc(OC(C)=O)c(OC(C)=O)c1	73.7	88	> 100	73.8	> 100	> 100	29.2	46.7	> 100	91.4									
CC(=O)Nc1ccccc1S(=O)(=O)c1c(-c2c(C)c(Cl)c(C)c(Cl)c2C)noc1C	40.6	> 100	> 100	> 100	> 100	95.5	> 100	> 100	> 100	> 100									
COc1ccc(C(c2ccccc2)N2C(=O)CCC2C(=O)O)cc1OC (stereo not drawn)	> 100	> 100	> 100	> 100	> 100	> 100	> 100	> 100	> 100	> 100									
CC1(C)O[C@@H]([C@@H](O)[C@H](O)C2SCCCS2)[C@@H](CO)O1	> 100	> 100	> 100	> 100	> 100	> 100	> 100	> 100	> 100	> 100									
O=C(Nc1ccc(-n2cc(-c3ccncc3)c(-c3ccc(O)c(Cl)c3)n2)cc1)c1ccc(Cl)c(Cl)c1			> 32.5	1.52		> 32.5	> 32.5	> 32.5	> 32.5	> 32.5	1340	668	693	2470 nM	2950	2870	708		
COc1ccc(-n2c(-c3ccccc3)cc(-c3cccs3)c2-c2cccs2)cc1	> 100	> 100	> 100	> 100		> 100		> 100	> 100	> 100									
N=C(N)c1ccc(-c2ccc(-c3ccccc3)o2)cc1		4.51	3.26	3.66	39.9		3.12	7.61	6.24	3.24	1670	1770		1550 nM	2720	2510	1640	2010	13.1
OCC1OC(NC(=S)NCSCCC(F)(F)C(F)(F)C(F)(F)C(F)(F)C(F)(F)C(F)(F)F)C(O)C(O)C1O (stereo not drawn)	> 100	> 100	> 100	62.1	> 100	46.6	> 100	> 100	> 100	> 100									
COc1cc(-c2c(C(C)=O)c(-c3ccccc3)n(C3OC(COC(C)=O)C(OC(C)=O)C(OC(C)=O)C3OC(C)=O)c(=S)c2C#N)ccc1O (stereo not drawn)	> 100	> 100	> 100	> 100	82.4	> 100	> 100	> 100	> 100	> 100				37000 nM and > 100000 nM					
Nc1nc(Cl)c(N)c(NCC2(CO)CC(O)C2)n1 (stereo not drawn)	> 100	> 100	> 100	> 100	> 100	> 100	> 100	> 100	> 100	> 100									
O=C(CCl)Nc1ccc(-c2nc3ccccc3s2)cc1	4.62	5.57	13.8	4.98	2.95	3.15	4.13	4.2	21.8	6.65									
COC1(CCO)CC=CCC1(CCO)OC (stereo not drawn)	> 100	> 100	> 100	> 100	> 100		> 100	> 100	> 100	> 100									
CCOC(=O)CC(=O)Nc1c(C(=O)OCC)sc2nc(SC)nc(Nc3ccc(OC)c(OC)c3)c12	37	> 100	> 100	> 100	> 100	25.1	> 100	> 100	> 100	> 100									
